Measured values published in patent US9487510B2, “Substituted heterocyclic acetamides as kappa opioid receptor (KOR) agonists” (Dr. Reddy's Laboratories Ltd., priority 2012, dated 2016).

Assays:
human KOR receptor = human KOR receptor (Homo sapiens, UniProt P41145); test: IP-One HTRF assay, potency of KOR agonists, dose-response in transiently transfected COS-7 cells; format: cell-based
Chain of human KOR receptor (P41145 whole entry): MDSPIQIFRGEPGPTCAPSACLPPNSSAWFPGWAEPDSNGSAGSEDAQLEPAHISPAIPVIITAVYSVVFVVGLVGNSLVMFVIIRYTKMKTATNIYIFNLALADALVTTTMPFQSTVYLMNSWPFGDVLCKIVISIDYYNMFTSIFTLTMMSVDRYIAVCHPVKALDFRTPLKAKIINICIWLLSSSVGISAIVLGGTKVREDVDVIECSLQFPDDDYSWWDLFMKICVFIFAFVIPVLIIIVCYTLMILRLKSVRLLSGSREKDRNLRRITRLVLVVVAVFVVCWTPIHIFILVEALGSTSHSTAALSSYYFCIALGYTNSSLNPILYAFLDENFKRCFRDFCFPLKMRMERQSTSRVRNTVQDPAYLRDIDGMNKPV

Compound	melting point [°C]	EC50 (human KOR receptor) [nM]
N#Cc1cccc(Cn2c(=O)oc3ccc(CC(=O)N[C@H](CN4CC[C@H](O)C4)c4ccccc4)cc32)c1 [Example 72, 2-(3-(3-cyanobenzyl)-2-oxo-2,3-dihydrobenzo[d]oxazol-5-yl)-N-((S)-2-((S)-3-hydroxypyrrolidin-1-yl)-1-phenylethyl)acetamide]	65 to 68	≤ 50
O=C(Cc1ccc2oc(=O)[nH]c2c1)N[C@H](CN1CCCC1)c1cccc(O)c1 [Example 84, (S)-N-(1-(3-hydroxyphenyl)-2-(pyrrolidin-1-yl)ethyl)-2-(2-oxo-2,3-dihydrobenzo[d]oxazol-5-yl)acetamide]	140 to 142	≤ 50
CN(C(=O)Cc1ccc2c(c1)NC(=O)C2)C(CN1CCCC1)c1cccc(OCC(=O)O)c1.Cl (stereo not shown) [Example 87, 2-(3-(1-(N-methyl-2-(2-oxoindolin-6-yl)acetamido)-2-(pyrrolidin-1-yl)ethyl)phenoxy)acetic acid hydrochloride]	169 to 171	≤ 50
CN(C(=O)Cc1ccc2oc(=O)n(Cc3cccc(C(N)=O)c3)c2c1)[C@H](CN1CC[C@H](O)C1)c1ccccc1 [Example 88, 3-((5-(2-(((S)-2-((S)-3-hydroxypyrrolidin-1-yl)-1-phenylethyl)(methyl)amino)-2-oxoethyl)-2-oxobenzo[d]oxazol-3(2H)-yl)methyl)benzamide]	181 to 183	≤ 50
CN(C(=O)Cc1ccc2oc(=O)n(Cc3ccccc3)c2c1)[C@H](CN1CCCC1)c1cccc(O)c1 [Example 89, (S)-2-(3-benzyl-2-oxo-2,3-dihydrobenzo[d]oxazol-5-yl)-N-(1-(3-hydroxyphenyl)-2-(pyrrolidin-1-yl)ethyl)-N-methylacetamide]	165 to 167	101 to 1000
NC(=O)c1cccc(Cn2c(=O)oc3ccc(CC(=O)N[C@H](CN4CCCC4)c4ccccc4)cc32)c1 [Example 91, (S)-3-((2-oxo-5-(2-oxo-2-(1-phenyl-2-(pyrrolidin-1-yl)ethylamino)ethyl)benzo[d]oxazol-3(2H)-yl)methyl)benzamide]	171 to 172	≤ 50
Cl.O=C(O)COc1cccc(C(CN2CCCC2)NC(=O)Cc2ccc3c(c2)NC(=O)C3)c1 (stereo not shown) [Example 92, 2-(3-(1-(2-(2-oxoindolin-6-yl)acetamido)-2-(pyrrolidin-1-yl)ethyl)phenoxy)acetic acid]	104 to 106	≤ 50
CN(C(=O)Cc1ccc2oc(=O)[nH]c2c1)[C@H](CN1CCCC1)c1cccc(-c2nn[nH]n2)c1 [Example 93, (S)-N-(1-(3-(2H-tetrazol-5-yl)phenyl)-2-(pyrrolidin-1-yl)ethyl)-N-methyl-2-(2-oxo-2,3-dihydrobenzo[d]oxazol-5-yl)acetamide]	240 to 242	≤ 50
CN(C(=O)Cc1ccc2oc(=O)n(CC(=O)O)c2c1)[C@H](CN1CC[C@@H](O)C1)C1CCCCC1 [Example 97]	233 to 234	≤ 50
O=C(Cc1ccc2oc(=O)n(Cc3ccc(-c4nnn[nH]4)cc3)c2c1)N[C@H](CN1CC[C@H](O)C1)c1ccccc1 [Example 106, 2-(3-(4-(1H-tetrazol-5-yl)benzyl)-2-oxo-2,3-dihydrobenzo[d]oxazol-5-yl)-N-((S)-2-((S)-3-hydroxypyrrolidin-1-yl)-1-phenylethyl)acetamide]	296 to 297	≤ 50
CN(C(=O)Cc1ccc2oc(=O)[nH]c2c1)[C@H](CN1CC[C@H](F)C1)c1cccc(-c2nn[nH]n2)c1 [Example 109, N-((S)-1-(3-(2H-tetrazol-5-yl)phenyl)-2-((S)-3-fluoropyrrolidin-1-yl)ethyl)-N-methyl-2-(2-oxo-2,3-dihydrobenzo[d]oxazol-5-yl)acetamide]	133 to 134	≤ 50
CN(C(=O)Cc1ccc2c(c1)NC(=O)C2)[C@H](CN1CC[C@H](O)C1)c1cccc(-c2nn[nH]n2)c1 [Example 110, N-((S)-1-(3-(2H-tetrazol-5-yl)phenyl)-2-((S)-3-hydroxypyrrolidin-1-yl)ethyl)-N-methyl-2-(2-oxoindolin-6-yl)acetamide]	208 to 210	≤ 50
CN(C(=O)Cc1ccc2c(c1)NC(=O)C2)[C@H](CN1CC[C@H](F)C1)c1cccc(-c2nn[nH]n2)c1 [Example 113, N-((S)-1-(3-(2H-tetrazol-5-yl)phenyl)-2-((S)-3-fluoropyrrolidin-1-yl)ethyl)-N-methyl-2-(2-oxoindolin-6-yl)acetamide]	175 to 177	≤ 50
CN(C(=O)Cc1ccc2c(c1)NS(=O)(=O)C2)[C@H](CN1CC[C@H](O)C1)c1ccccc1 [Example 136, 2-(2,2-dioxido-1,3-dihydrobenzo[c]isothiazol-6-yl)-N-((S)-2-((S)-3-hydroxypyrrolidin-1-yl)-1-phenylethyl)-N-methylacetamide]	232 to 234	≤ 50
